Assay in all cases: Kinase panel
Common to all, as to assay type: biochemical

One test deals with T1, BrSK1(h) (Homo sapiens, UniProt Q8TDC3).
T1 construct: purchased Millipore KinaseProfiler
T1 sequence (Q8TDC3 1-778): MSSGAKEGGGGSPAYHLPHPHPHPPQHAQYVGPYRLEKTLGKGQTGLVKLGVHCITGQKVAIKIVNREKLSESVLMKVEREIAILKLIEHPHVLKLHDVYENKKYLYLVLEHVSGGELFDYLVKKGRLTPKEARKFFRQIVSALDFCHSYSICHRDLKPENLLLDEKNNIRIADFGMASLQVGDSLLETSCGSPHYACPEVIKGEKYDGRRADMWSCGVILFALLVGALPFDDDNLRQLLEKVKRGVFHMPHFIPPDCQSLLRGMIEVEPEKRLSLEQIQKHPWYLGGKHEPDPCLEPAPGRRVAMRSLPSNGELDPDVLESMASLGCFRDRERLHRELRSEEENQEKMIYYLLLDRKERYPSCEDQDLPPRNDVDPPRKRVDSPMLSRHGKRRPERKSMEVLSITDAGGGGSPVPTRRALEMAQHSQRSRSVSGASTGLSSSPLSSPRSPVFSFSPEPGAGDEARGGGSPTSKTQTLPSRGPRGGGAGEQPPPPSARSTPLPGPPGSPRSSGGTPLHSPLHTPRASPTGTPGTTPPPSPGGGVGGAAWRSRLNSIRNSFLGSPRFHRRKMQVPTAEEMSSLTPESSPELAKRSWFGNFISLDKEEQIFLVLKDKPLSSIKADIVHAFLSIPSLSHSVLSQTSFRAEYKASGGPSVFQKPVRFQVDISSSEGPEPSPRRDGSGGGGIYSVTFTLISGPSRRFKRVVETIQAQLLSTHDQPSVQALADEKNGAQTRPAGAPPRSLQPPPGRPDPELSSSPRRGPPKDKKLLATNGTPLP

For the next test, the target named is T2, DDR2(h) (Homo sapiens, UniProt Q16832).
T2 construct: purchased Millipore KinaseProfiler
T2 sequence (Q16832 22-855): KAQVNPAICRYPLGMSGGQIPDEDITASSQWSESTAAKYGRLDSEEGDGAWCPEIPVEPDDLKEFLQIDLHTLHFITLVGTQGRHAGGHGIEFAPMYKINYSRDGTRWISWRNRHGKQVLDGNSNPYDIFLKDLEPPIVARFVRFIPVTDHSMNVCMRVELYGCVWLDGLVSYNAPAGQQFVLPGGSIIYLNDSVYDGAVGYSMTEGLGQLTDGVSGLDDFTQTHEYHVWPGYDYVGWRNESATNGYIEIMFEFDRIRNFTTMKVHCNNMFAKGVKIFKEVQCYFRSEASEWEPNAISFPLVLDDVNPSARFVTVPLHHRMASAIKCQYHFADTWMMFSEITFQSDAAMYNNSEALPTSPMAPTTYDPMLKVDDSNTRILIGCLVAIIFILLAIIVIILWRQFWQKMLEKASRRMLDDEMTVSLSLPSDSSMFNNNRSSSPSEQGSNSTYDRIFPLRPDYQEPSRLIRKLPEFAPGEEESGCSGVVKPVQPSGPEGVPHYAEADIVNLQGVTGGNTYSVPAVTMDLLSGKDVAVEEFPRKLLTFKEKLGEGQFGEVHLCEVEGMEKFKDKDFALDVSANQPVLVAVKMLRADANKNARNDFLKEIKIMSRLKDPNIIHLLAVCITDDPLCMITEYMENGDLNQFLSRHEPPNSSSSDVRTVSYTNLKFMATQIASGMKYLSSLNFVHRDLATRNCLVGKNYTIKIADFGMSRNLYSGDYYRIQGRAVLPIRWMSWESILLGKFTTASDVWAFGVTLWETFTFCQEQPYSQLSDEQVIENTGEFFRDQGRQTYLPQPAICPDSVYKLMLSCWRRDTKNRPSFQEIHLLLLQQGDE

The next test addresses T3, Plk3(h) (Homo sapiens, UniProt Q9H4B4).
T3 construct: purchased Millipore KinaseProfiler

A further test has as its target T4, ROCK-I(h) (Homo sapiens, UniProt Q13464).
T4 construct: purchased Millipore KinaseProfiler

A further test concerns the target T5, TAO1(h) (Homo sapiens, UniProt Q7L7X3).
T5 construct: purchased Millipore KinaseProfiler
T5 sequence (Q7L7X3 1-1001): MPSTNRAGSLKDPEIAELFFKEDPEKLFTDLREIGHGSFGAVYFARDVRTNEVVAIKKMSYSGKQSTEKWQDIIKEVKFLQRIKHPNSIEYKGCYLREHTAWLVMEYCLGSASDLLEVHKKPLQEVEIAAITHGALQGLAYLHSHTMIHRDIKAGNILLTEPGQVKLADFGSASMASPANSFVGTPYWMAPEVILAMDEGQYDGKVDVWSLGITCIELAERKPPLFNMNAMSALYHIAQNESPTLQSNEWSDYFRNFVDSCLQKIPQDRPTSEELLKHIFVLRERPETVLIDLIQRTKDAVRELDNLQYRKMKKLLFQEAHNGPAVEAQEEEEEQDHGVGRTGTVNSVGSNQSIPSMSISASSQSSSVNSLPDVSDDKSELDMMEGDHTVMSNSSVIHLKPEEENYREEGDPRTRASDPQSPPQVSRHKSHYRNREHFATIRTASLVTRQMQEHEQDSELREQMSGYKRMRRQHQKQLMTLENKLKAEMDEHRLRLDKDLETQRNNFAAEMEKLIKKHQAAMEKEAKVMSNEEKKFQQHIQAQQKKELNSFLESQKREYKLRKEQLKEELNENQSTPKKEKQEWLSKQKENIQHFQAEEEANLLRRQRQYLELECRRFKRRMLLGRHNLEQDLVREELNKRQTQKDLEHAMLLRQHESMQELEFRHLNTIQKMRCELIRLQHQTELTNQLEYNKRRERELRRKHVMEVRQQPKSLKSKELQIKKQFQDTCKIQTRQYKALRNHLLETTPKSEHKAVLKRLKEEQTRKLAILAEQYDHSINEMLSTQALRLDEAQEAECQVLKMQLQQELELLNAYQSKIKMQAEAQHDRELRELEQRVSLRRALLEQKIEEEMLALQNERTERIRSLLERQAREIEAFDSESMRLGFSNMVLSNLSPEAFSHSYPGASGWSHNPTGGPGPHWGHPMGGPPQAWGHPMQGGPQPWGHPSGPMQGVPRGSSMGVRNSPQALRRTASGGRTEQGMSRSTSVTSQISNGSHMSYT

The term inhibition denotes the relative decrease from the control value, in per cent.

Where two headings read alike, the source gives them in different places.

T3 sequence (Q9H4B4 whole entry): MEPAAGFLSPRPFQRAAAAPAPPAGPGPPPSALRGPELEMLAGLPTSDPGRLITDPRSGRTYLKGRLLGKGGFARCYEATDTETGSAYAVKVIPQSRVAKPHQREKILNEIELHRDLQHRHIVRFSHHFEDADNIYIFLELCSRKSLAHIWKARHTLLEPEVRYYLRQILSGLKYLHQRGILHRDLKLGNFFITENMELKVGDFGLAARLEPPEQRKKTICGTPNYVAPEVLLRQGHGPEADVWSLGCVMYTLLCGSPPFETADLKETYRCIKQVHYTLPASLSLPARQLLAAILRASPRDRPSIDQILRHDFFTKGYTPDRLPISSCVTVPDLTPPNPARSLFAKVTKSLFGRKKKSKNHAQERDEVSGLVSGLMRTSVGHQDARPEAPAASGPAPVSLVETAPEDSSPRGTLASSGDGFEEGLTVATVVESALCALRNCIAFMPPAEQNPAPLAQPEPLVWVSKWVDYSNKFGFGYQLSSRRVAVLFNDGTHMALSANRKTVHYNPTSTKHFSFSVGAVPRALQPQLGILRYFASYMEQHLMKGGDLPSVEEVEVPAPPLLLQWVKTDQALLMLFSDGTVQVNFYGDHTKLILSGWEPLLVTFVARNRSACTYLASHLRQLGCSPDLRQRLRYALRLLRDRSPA
T4 sequence (Q13464 whole entry): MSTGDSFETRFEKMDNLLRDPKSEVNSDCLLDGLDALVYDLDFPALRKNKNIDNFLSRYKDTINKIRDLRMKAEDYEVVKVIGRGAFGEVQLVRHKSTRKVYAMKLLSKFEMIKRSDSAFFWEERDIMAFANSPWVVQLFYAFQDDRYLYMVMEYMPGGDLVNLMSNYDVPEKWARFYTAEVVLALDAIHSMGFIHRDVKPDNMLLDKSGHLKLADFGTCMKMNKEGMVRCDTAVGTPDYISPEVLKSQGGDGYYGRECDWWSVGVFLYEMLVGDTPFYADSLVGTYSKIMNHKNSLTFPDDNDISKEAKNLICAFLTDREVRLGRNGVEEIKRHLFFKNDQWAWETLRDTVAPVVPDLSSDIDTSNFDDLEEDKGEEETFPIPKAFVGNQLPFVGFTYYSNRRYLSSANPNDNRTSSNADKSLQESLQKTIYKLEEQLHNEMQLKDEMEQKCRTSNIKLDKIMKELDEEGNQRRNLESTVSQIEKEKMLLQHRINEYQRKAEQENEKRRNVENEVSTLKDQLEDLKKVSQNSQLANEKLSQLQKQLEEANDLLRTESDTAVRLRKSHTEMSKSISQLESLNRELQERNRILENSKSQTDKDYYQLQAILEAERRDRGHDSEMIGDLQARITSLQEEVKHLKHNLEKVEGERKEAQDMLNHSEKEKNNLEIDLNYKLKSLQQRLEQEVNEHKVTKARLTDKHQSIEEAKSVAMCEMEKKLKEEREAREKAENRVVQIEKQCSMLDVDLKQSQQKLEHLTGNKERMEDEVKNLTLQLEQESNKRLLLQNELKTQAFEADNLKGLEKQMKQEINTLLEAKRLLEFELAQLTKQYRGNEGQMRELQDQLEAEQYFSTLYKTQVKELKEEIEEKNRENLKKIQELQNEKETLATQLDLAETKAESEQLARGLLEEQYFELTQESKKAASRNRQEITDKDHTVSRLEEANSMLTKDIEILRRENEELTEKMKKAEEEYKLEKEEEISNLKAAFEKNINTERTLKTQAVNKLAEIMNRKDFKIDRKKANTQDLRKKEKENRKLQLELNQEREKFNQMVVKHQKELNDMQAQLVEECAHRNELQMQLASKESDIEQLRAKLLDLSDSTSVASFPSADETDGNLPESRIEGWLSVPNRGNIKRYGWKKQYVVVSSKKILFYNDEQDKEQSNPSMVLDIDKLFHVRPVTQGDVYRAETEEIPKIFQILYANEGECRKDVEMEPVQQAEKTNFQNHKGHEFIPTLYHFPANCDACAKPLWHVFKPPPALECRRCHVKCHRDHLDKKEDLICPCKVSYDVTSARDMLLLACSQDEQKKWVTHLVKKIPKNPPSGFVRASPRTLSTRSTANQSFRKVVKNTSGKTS

For the compound `Cn1ncc(Cl)c1-c1cc(C(=O)N[C@H](CN)Cc2cccc(F)c2)sc1Cl` [GSK2110183], the inhibition at 0.5 µM on BrSK1(h) was -3%; against DDR2(h), 1%; at Plk3(h) it was -3%; at ROCK-I(h) it was 12%; against TAO1(h) it was 15%. Besides, the inhibition at 10 µM at BrSK1(h) was 10%; on DDR2(h), 6%; on Plk3(h) it was 16%; on ROCK-I(h), 77%; against TAO1(h), 49%.
On to `Cn1ncc(Cl)c1-c1cc(C(=O)N[C@H](CN)Cc2ccc(F)c(F)c2)oc1Cl` [GSK2141795], for which the inhibition at 0.5 µM was -2% at BrSK1(h) (0.5 µM, read-out: % Inhibition); 3% at DDR2(h) (0.5 µM, read-out: % Inhibition); -7% on Plk3(h) (0.5 µM, read-out: % Inhibition); 18% at ROCK-I(h) (0.5 µM, read-out: % Inhibition); -4% on TAO1(h) (0.5 µM, read-out: % Inhibition). The inhibition at 10 µM was 7% on BrSK1(h) (10 µM, read-out: % Inhibition); 12% at DDR2(h) (10 µM, read-out: % Inhibition); 59% at Plk3(h) (10 µM, read-out: % Inhibition); 71% on ROCK-I(h) (10 µM, read-out: % Inhibition); 24% on TAO1(h) (10 µM, read-out: % Inhibition).

The record behind these values is paper PMC4076210, “Discovery of Novel AKT Inhibitors with Enhanced Anti-Tumor Effects in Combination with the MEK Inhibitor” (PLoS ONE, 2014).
